In the NIST ThermoML archive (doi:10.1021/acs.jced.5b00934):

Conditions: Liquid, Vibrating tube method

CCC(C)O (configuration not stated) [butan-2-ol]
Conditions	mass density [kg/m3]
283.15 K, 99 kPa	814.7
283.15 K, 306 kPa	814.8
283.15 K, 529 kPa	815
283.15 K, 909 kPa	815.3
283.15 K, 1030 kPa	815.4
283.15 K, 2005 kPa	816.1
283.15 K, 2987 kPa	816.8
283.15 K, 4975 kPa	818.2
283.15 K, 6996 kPa	819.6
283.15 K, 9019 kPa	821
283.15 K, 10037 kPa	821.7
283.15 K, 12013 kPa	823
283.15 K, 14917 kPa	824.9
283.15 K, 17956 kPa	826.9
283.15 K, 20028 kPa	828.2
283.15 K, 21997 kPa	829.4
283.15 K, 24984 kPa	831.2
283.15 K, 27996 kPa	833
283.15 K, 29889 kPa	834.1
283.15 K, 31914 kPa	835.3
283.15 K, 33047 kPa	835.9
283.15 K, 33065 kPa	835.9
283.15 K, 34001 kPa	836.4
283.15 K, 34979 kPa	836.9
283.15 K, 40002 kPa	839.7
283.15 K, 42074 kPa	840.9
283.15 K, 44993 kPa	842.4
283.15 K, 48024 kPa	844
283.15 K, 50047 kPa	845.1
283.15 K, 52032 kPa	846.1
283.15 K, 55041 kPa	847.6
283.15 K, 57909 kPa	849.1
283.15 K, 60034 kPa	850.1
283.15 K, 62037 kPa	851.1
283.15 K, 65102 kPa	852.6
283.15 K, 66079 kPa	853
283.16 K, 37912 kPa	838.6
288.15 K, 99 kPa	810.8
288.15 K, 298 kPa	811
288.15 K, 511 kPa	811.1
288.15 K, 912 kPa	811.4
288.15 K, 993 kPa	811.5
288.15 K, 2048 kPa	812.3
288.15 K, 3020 kPa	813
288.15 K, 5097 kPa	814.5
288.15 K, 10002 kPa	818
288.15 K, 11924 kPa	819.3
288.15 K, 15086 kPa	821.4
288.15 K, 17992 kPa	823.4
288.15 K, 19982 kPa	824.6
288.15 K, 21991 kPa	825.9
288.15 K, 25200 kPa	827.9
288.15 K, 28149 kPa	829.7
288.15 K, 30056 kPa	830.8
288.15 K, 32010 kPa	832
288.15 K, 32915 kPa	832.4
288.15 K, 32978 kPa	832.5
288.15 K, 33919 kPa	833
288.15 K, 37967 kPa	835.3
288.15 K, 40071 kPa	836.5
288.15 K, 42013 kPa	837.6
288.15 K, 45099 kPa	839.3
288.15 K, 47977 kPa	840.8
288.15 K, 51983 kPa	842.9
288.15 K, 57976 kPa	846
288.15 K, 62043 kPa	848
288.15 K, 64998 kPa	849.5
288.15 K, 66143 kPa	850
288.16 K, 6990 kPa	815.8
288.16 K, 9100 kPa	817.3
288.16 K, 35048 kPa	833.7
288.16 K, 50052 kPa	842
288.16 K, 54961 kPa	844.5
288.16 K, 59961 kPa	847
293.15 K, 99 kPa	806.7
293.15 K, 891 kPa	807.3
293.15 K, 10027 kPa	814.1
293.15 K, 12006 kPa	815.5
293.15 K, 14925 kPa	817.5
293.15 K, 22039 kPa	822.3
293.15 K, 24969 kPa	824.2
293.15 K, 28001 kPa	826
293.15 K, 30012 kPa	827.2
293.15 K, 31992 kPa	828.4
293.15 K, 33079 kPa	829.1
293.15 K, 34051 kPa	829.6
293.15 K, 37933 kPa	831.9
293.15 K, 40088 kPa	833.1
293.15 K, 42062 kPa	834.2
293.15 K, 45052 kPa	835.9
293.15 K, 48098 kPa	837.6
293.15 K, 50000 kPa	838.6
293.15 K, 51999 kPa	839.7
293.15 K, 55060 kPa	841.3
293.15 K, 58191 kPa	842.9
293.15 K, 62049 kPa	844.8
293.15 K, 64958 kPa	846.3
293.15 K, 66185 kPa	846.9
293.16 K, 304 kPa	806.8
293.16 K, 505 kPa	807
293.16 K, 1026 kPa	807.4
293.16 K, 1994 kPa	808.2
293.16 K, 3011 kPa	808.9
293.16 K, 4984 kPa	810.4
293.16 K, 7001 kPa	811.9
293.16 K, 8967 kPa	813.4
293.16 K, 17912 kPa	819.5
293.16 K, 20060 kPa	821
293.16 K, 33109 kPa	829
293.16 K, 35005 kPa	830.2
293.16 K, 60071 kPa	843.8
298.15 K, 96 kPa	802.3
298.15 K, 291 kPa	802.5
298.15 K, 488 kPa	802.7
298.15 K, 995 kPa	803.1
298.15 K, 2020 kPa	803.9
298.15 K, 9025 kPa	809.3
298.15 K, 10078 kPa	810
298.15 K, 17949 kPa	815.6
298.15 K, 19932 kPa	817
298.15 K, 22061 kPa	818.4
298.15 K, 24991 kPa	820.3
298.15 K, 27926 kPa	822.2
298.15 K, 30121 kPa	823.6
298.15 K, 32061 kPa	824.8
298.15 K, 33040 kPa	825.4
298.15 K, 33088 kPa	825.4
298.15 K, 35034 kPa	826.5
298.15 K, 38020 kPa	828.3
298.15 K, 49981 kPa	835.1
298.15 K, 57978 kPa	839.4
298.15 K, 60039 kPa	840.5
298.15 K, 62048 kPa	841.5
298.15 K, 66054 kPa	843.6
298.16 K, 906 kPa	803
298.16 K, 3037 kPa	804.7
298.16 K, 5064 kPa	806.3
298.16 K, 7065 kPa	807.8
298.16 K, 12017 kPa	811.4
298.16 K, 15244 kPa	813.7
298.16 K, 34019 kPa	825.9
298.16 K, 40026 kPa	829.5
298.16 K, 42019 kPa	830.7
298.16 K, 44993 kPa	832.3
298.16 K, 47933 kPa	834
298.16 K, 52047 kPa	836.3
298.16 K, 54969 kPa	837.8
298.16 K, 65037 kPa	843.1
303.15 K, 98 kPa	798.2
303.15 K, 290 kPa	798.3
303.15 K, 914 kPa	798.8
303.15 K, 1019 kPa	798.9
303.15 K, 2009 kPa	799.7
303.15 K, 3007 kPa	800.5
303.15 K, 4968 kPa	802.1
303.15 K, 8967 kPa	805.2
303.15 K, 17980 kPa	811.8
